Measurements published in patent US10336984B2, “Method of molecular stress control” (CPSI Holdings LLC, priority 2010, dated 2019).
“Also recorded” adds a separate entry of the source. Read-outs that look alike come from different tables or passages of the source.

Assays:
[1] = test system: RM-9 prostate cancer cells; assay: Survival of RM-9 prostate cancer cells under cryotreatment (freezing) stress; format: cell-based, mouse; details: high doses
Excerpt: Experiments have been completed and have expanded the scope of study to (1) include natural agents as part of the formulation and (2) target various stress pathways that may be activated in cells when they are bioprocessed. A variety of agents were used in addition to resveratrol. Of these, Vitamin D3 (i.e. calcitriol) at high doses protects the cells. […] Here, the stress regime included cryotreatment (freezing).

human hepatoma (C3A) = format: cell-based
Excerpt: Samples were processed utilizing industry standard media (Roswell Park Memorial Institute, RPMI, media), cryo-protective agents and techniques. Cell survival response curves were plotted against varying concentrations of DMSO. Samples were frozen, thawed, cultured to allow for recovery, and then frozen again. This process was repeated 4 times (e.g. Freeze #1, Freeze #2, Freeze #3, Freeze #4) over experimental periods of several weeks (FIG. 8).
As the intent of cell-guard is to reduce the negative effects of stress response of cells during normothermic culture processing, a series of studies using the freeze stress model were conducted examining the potential of stress response modulation during recovery culture. The studies examined the effect of modulating the apoptotic cell death mechanism, caspase cascade, as well as mitochondrial oxidative stress pathways. While numerous studies have looked at caspase and free radical formation inhibition during stresses including freezing, no studies have been reported looking to the effect of post-processing manipulation.
As such, in FIG. 9, C3A samples were frozen using industry standard protocols in culture media+0%, 2%, 5%, and 10% DMSO. […]

[2] = test system: human corneal endothelial cells (HCECs); assay: Viability of HCECs after hypothermic storage (alamarBlue); format: cell-based; details: for survival difference between ViaSpan with and without tunicamycin: 3 days at 4° C.; for viability at 10 µM / viability at 25 µM: Homo sapiens, HCEC; for viability at 10 µM: 10 μM salubrinal
Description: (§1) Thermal Stress Regime: Cells were seeded into 96-well tissue culture plates (13,000 cells per well) and cultured for 24 hours into a monolayer. Culture media was decanted from experimental plates and replaced with 100 μl/well of the pre-cooled (4° C.) solution (complete growth media, HBSS with calcium and magnesium, ViaSpan, or OptiSol). Cultures were maintained at 4° C. for 18 hours to 9 days. Following cold storage, the media were decanted, replaced with 100 μl/well of room temperature (˜25° C.) complete culture media and then placed into standard culture conditions (37° C., 5% CO2) for recovery and assessment.
(§2) Cell Viability Assay: To assess cell viability the metabolic activity assay, alamarBlue™ (Invitrogen) was utilized. Cell culture medium was decanted from the 96-well plates and 100 μl/well of the working alamarBlue™ solution (1:20 dilution in HBSS) was applied. Samples were then incubated for 60 minutes (±1 min) at 37° C. in the dark. The fluorescence levels were analyzed using a Tecan SPECTRAFluorPlus plate reader (TECAN, Austria GmbH). Relative fluorescence units were converted to a percentage compared to normothermic controls set at 100%. Readings were taken immediately following removal from hypothermic storage as well as 24 and 48 hours of recovery.
Chemical Additions: Modulation of the UPR was accomplished through the use of salubrinal (UPR-specific inhibitor), tunicamycin (UPR-specific inducer), resveratrol, AKT, Vitamin D3, caspase and MPTP inhibitors, among others. For instance, salubrinal (EMD Chemicals Inc., Gibbstown, N.J.) was added to media at working concentrations of 10 and 25 μM immediately before utilization. Tunicamycin (EMD Chemicals Inc.) was added to ViaSpan at a working concentration of 2 ug/mL immediately prior to use. All chemicals were diluted in water, ethanol, or DMSO prior to utilization and DMSO controls were conducted to ensure no effect of the dilution vehicle.

[3] = test system: human lung fibroblasts (IMR-90); assay: Cold exposure of human lung fibroblasts (IMR-90); format: cell-based
Description: Preliminary studies into Unfolded Protein Response (UPR) pathways in cell death associated with cell stress has provided promising results. The UPR activator, tunicamycin, was applied in a thermal stress regime. In FIG. 5, human lung fibroblasts (IMR-90) were exposed to the cold (4° C.) in cell culture media, Viaspan (with and without tunicamycin), or ViaSpan with DMSO (carrier solution for tunicamycin). The DMSO control acts as a chemical chaperone. It was hypothesized that the addition of tunicamycin would result in an increased level of cell death following thermal stress.
With this discovery, additional studies were conducted under a more stressful thermal regime designed to completely destroy all cells. […] In subsequent studies, tunicamycin was added subsequent to (rather than during) the cold stress period and compared to samples without addition. (See FIG. 5).
FIG. 5 also depicts the viability of human lung fibroblasts (IMR-90) following two days of cold exposure with the addition of resveratrol (FR234). […] Yet, when tunicamycin is added during the recovery phase, this agent has the predicted lethal effect as described in the UPR literature.

human hepatocytes = assay: Hypoxic normothermic stress of hepatocytes with supplements; format: cell-based
Description: (§3) As an example, hepatocytes and C3A cells were placed under hypoxic conditions […] (normothermic incubation) in various commercial media with and without salubrinal or resveratrol. As with the cold thermal stress model, through the application of the current invention, preferential selection of either cell population was possible. The table in FIG. 10 summarizes the representative response of the various liver cells when placed into the two stress model conditions of thermal and hypoxic stress.
(§4) Stress Regime 2—Hypoxia: Cells were held at 37° C. in an incubator with reduced levels of O2 for a 24 hour period. Two hypoxia models were utilized including increased CO2 levels providing for an 80% air: 20% CO2 ratio (versus standard 95% air: 5% CO2) as well as limited gas exchange using isolated environmental chambers. This procedure is designed to model various intervals of suboptimal culture conditions associated with cell processing and utilization.

[4] = test system: primary human hepatocytes; assay: Hypothermic stress of primary human hepatocytes with supplements; format: cell-based; details: hypothermic exposure at 4° C.
Description: as §1, §2
As such, in FIG. 20, primary human hepatocytes were then subjected to the same hypothermic stress paradigm. […]

[5] = test system: human hepatoma C3A cell lines; assay: C3A cells three days under optimal culture conditions with FR-234 (alamarBlue); format: cell-based; details: highest dose, 100 μg/mL; three days at 37° C., 5% CO2
Description: FIG. 7 assesses the effect of the stress modulator, resveratrol (FR-234), exposure for three days under optimal culture conditions in human hepatoma C3A cell lines. In this graph, C3A cells were stored for three days under optimal culture conditions (37° C., 5% CO2) with a range of FR-234 doses. Cells were removed from storage after three days. Storage solutions were replaced with fresh culture media and viability was assessed at 1, 2, and 3 days post-storage using the metabolic activity indicator, alamarBlue.

rat primary hepatocytes = assay: Hypothermic stress of rat primary hepatocytes with supplements; format: cell-based
Description: as §1, §2
In FIG. 19, the C3A cells were then substituted with rat primary hepatocytes. […]

[6] = test system: C3A, human liver cancer cells; assay: Hypoxic normothermic stress of C3A cells with supplements; format: cell-based; details: normothermic hypoxic stress regime
Description: as §3, §4

[7] = test system: human corneal endothelial cells (HCECs); assay: Cell death populations in HCECs after cold storage (flow cytometry, fluorescence microscopy); format: cell-based
Description: Fluorescence Microscopy: Samples in 96-well plates were assessed for the presence of live, necrotic or apoptotic cells through triple labeling using Hoechst [81 μM], propidium iodide [9 μM], and Y oPro-1 [0.8 μM] (Molecular Probes, Eugene, Oreg.), respectively. Probes were added to samples and incubated in the dark for 20 minutes prior to imaging. To assess membrane integrity a dual label of calcein-AM [4 μM] and propidium iodide [9 μM] was utilized. Dual label probes were added to the samples and incubated for 30 minutes in the dark. All fluorescence images of labeled cells were obtained at 1, 4, 8 and 24 hours post-storage using a Zeiss Axiovert 200 fluorescent microscope with the AxioVision 4 software (Zeiss, Germany).
Flow Cytometric Analysis: Counts of the unlabeled (live), necrotic (PI [1.5 μM]) and apoptotic (YOPRO-1 [0.1 μM]) labeled cells were obtained using microfluidic flow cytometry (Millipore). Probes were added to each sample and incubated in the dark for 20 minutes prior to cell collection. Counts of cells with polarized and depolarized mitochondria (JC-1 [7.7 μM]) were also obtained via microfluidic flow cytometry. Samples were labeled, collected and analyzed at 1, 4, 8 and 24 hours post-storage. Analysis was performed using the CytoSoft 5.2 software for the Guava PCA-96 system.
Following the observation of differences in viability through the targeted modulation of the UPR, we next analyzed what effect this targeted approach has on the level and timing of cell death following hypothermic storage. HCECs were held at 4° C. for 24 hours in various solutions (CGM, HBSS, ViaSpan and OptiSol) with and without the addition of 25 μM salubrinal and assessed via microfluidic flow cytometry and fluorescence microscopy. Analysis of the apoptotic and necrotic populations was conducted to examine the effect UPR inhibition (25 μM salubrinal) had on cell death populations post-storage.

C=C1/C(=C\C=C2/CCC[C@]3(C)[C@@H]([C@H](C)CCCC(C)(C)O)CC[C@@H]23)C[C@@H](O)C[C@@H]1O [Vitamin D3, calcitriol]
protection of cells under stress regime [1]: protects cells

CC(=O)N[C@@H](CS)C(=O)O [NAC, N-Acetyl-Cysteine]
effect on cell division in extended post-stress culture (human hepatoma (C3A)): no downstream negative effect on cell division
overall increase in sample recovery (human hepatoma (C3A); 10% DMSO condition, supplement for first 24 hours post-processing): ~20%

tunicamycin
cell survival immediately post-storage ([2]; 3 days at 4° C. in ViaSpan, tunicamycin 2 ug/mL, 0 hours recovery): ~60%
survival difference between ViaSpan with and without tunicamycin ([2]; 24 hours of recovery): 29.0%
survival difference between ViaSpan with and without tunicamycin ([2]; 48 hours post-storage): 53.9%
HCEC survival during the recovery period ([2]; tunicamycin added during cold exposure): significant decrease in HCEC survival
cell survival ([3]; post stress addition of tunicamycin (recovery phase)): reduction in cell survival
thermal tolerance ([3]; tunicamycin in Viaspan during cold (4° C.) exposure): increase in thermal tolerance
effect of tunicamycin post-cold on samples exposed to resveratrol ([3]; two days of cold exposure): negating the positive effects of resveratrol

Oc1ccc(C=Cc2cc(O)cc(O)c2)cc1 [resveratrol]
cell viability of hepatocytes (human hepatocytes; normothermic hypoxic stress regime): not for hepatocytes
protection of human hepatocytes from cold stress / cell viability [4]: able to completely protect; also recorded: extended
effect on sample viability [5]: profound negative effect on sample viability
effect of resveratrol on viability ([3]; two days of cold exposure): positive effects
protection of rat primary hepatocytes from hypothermic stress (rat primary hepatocytes): very effectively protected
cell viability of C3A cells [6]: extended the cell viability for C3A cells

O=C(/C=C/c1ccccc1)NC(NC(=S)Nc1cccc2cccnc12)C(Cl)(Cl)Cl (centres unmarked) [salubrinal]
total cell retention during hypothermic exposure ([7]; 25 μM salubrinal, 24 hours at 4° C.): increased retention of total cells
levels of apoptosis, inhibited vs uninhibited ([7]; 25 μM salubrinal, 24 hours at 4° C., each time point): elevated
necrotic populations, UPR inhibited vs uninhibited ([7]; 25 μM salubrinal, 24 hours at 4° C., normalized to normothermic control): similar
membrane integrity and cellular attachment during recovery ([7]; CGM storage 24 hours, calcein-AM and propidium iodide): marked increase
cell viability of hepatocytes (human hepatocytes): extended the cell viability of hepatocytes
viability over the 48 hour recovery period ([2]; 24 hours at 4° C. in CGM, 25 μM salubrinal): retained
effect of salubrinal addition on viability ([2]; 24 hours at 4° C. in HBSS and ViaSpan): no differences
effect of salubrinal supplementation on viability ([2]; 48 hour storage in ViaSpan): no effect
viability ([2]; 48 hour storage in ViaSpan with salubrinal supplementation): 76.7%
viability following 2 days of cold storage ([2]; CGM and OptiSol, all samples with and without salubrinal): complete loss in viability
HCEC tolerance to stress ([2]; FIG. 11, 18 hours of hypothermic storage): improves human corneal endothelial cell (HCEC) tolerance to stress
increase in cell survival ([2]; HCEC samples experiencing profound cold-induced failure): 2 fold
viability at 10 µM ([2]; 48 h, 2 days at 4° C. in HBSS, read-out: overall viability): 26.9%
viability at 25 µM ([2]; 48 h, 2 days at 4° C. in HBSS, 25 μM salubrinal, read-out: overall viability): 37.8%
viability at 10 µM ([2]; 24 hours at 4° C. in CGM, read-out: post-storage viability): 23.1%
viability at 25 µM ([2]; 24 hours at 4° C. in CGM, 25 μM salubrinal, read-out: post-storage viability): 28%
viability at 10 µM ([2]; 24 hours at 4° C. in OptiSol, read-out: post storage viability): 52.3%
viability at 25 µM ([2]; 24 hours at 4° C. in OptiSol, 25 μM salubrinal, read-out: post storage viability): 53.9%
protection of rat primary hepatocytes from hypothermic stress (rat primary hepatocytes; hypothermic exposure at 4° C.): failed to protect
